In patent US7105162B1, “Pharmaceutical composition for immunomodulation based on peptides and adjuvants” (Boehringer Ingelheim International GmbH, priority 1996, dated 2006):

How the values were obtained:
APCs = experiment: Internalisation of FITC-labelled peptide (monensin treatment, 4° C. versus 37° C.), throughflow cytometry; type: cell-based; conditions: incubated at 37° C., then 50 μM monensin at 4° C.; FIG. 13
Description: Peptides can be absorbed by APCs by means of specific mechanisms such as macropinocytosis or receptor-mediated endocytosis (Lanzavecchia, 1996). An alternative mechanism may consist in the polyamino acids making the cell membrane permeable and in this way allowing peptides to diffuse from the medium into the cytoplasm. • a) The possible permeabilisation of the cell membrane was tested by measuring the release of the cytoplasmic enzyme lactate dehydrogenase (LDH) after the incubation of P388D1 cells with polyamino acids (polylysine or polyarginine) under isotonic conditions using the commercially available kit (Cytotox 96, Promega, Madison, Wis., USA) in accordance with the manufacturer's instructions. […] The fluorescence emitted by FITC is strongly pH-dependent. In an environment with pH conditions such as those found in endosomes, fluorescence is suppressed. Therefore, FITC-labelled peptides which are absorbed by the cells into the endosomes show reduced fluorescence. When monensin is added, the low pH of the endosomes is neutralised, leading to a measurably greater fluorescence of the internalised FITC-labelled peptides.
The cells were incubated with a mixture of polyarginine (average molecular weight range 100,000, chain length 490) and fluorescence-labelled peptide at 4° C. or 37° C. […]

P388D1 cells = experiment: Permeabilisation of the cell membrane: LDH release (Cytotox 96); type: cell-based, murine; conditions: isotonic conditions; FIG. 12
Description: Peptides can be absorbed by APCs by means of specific mechanisms such as macropinocytosis or receptor-mediated endocytosis (Lanzavecchia, 1996). An alternative mechanism may consist in the polyamino acids making the cell membrane permeable and in this way allowing peptides to diffuse from the medium into the cytoplasm. • a) The possible permeabilisation of the cell membrane was tested by measuring the release of the cytoplasmic enzyme lactate dehydrogenase (LDH) after the incubation of P388D1 cells with polyamino acids (polylysine or polyarginine) under isotonic conditions using the commercially available kit (Cytotox 96, Promega, Madison, Wis., USA) in accordance with the manufacturer's instructions. […] When samples treated with polyamino acids alone were compared, no difference in the release of LDH was found compared with treatment with a mixture of polylysine or polyarginine with peptide. […] The fluorescence emitted by FITC is strongly pH-dependent. In an environment with pH conditions such as those found in endosomes, fluorescence is suppressed. Therefore, FITC-labelled peptides which are absorbed by the cells into the endosomes show reduced fluorescence. When monensin is added, the low pH of the endosomes is neutralised, leading to a measurably greater fluorescence of the internalised FITC-labelled peptides.

Sequence: LFEAIEGFI [FITC-labelled model peptide antigen, MHC Kd-restricted, derived from influenza haemagglutinin]
- change in fluorescence after monensin treatment (APCs): only a slight increase in fluorescence
- LDH released from cells (P388D1 cells): no measurable LDH-activity
